Earlier results as cited in patent US20190219580A1, “METHODS OF DRUG THERAPY SELECTION FOR BREAST CANCER PATIENTS BASED ON HER2 AND HER3 PATHWAY SUBTYPING” (Nestec S.A., priority 2016, published 2019).
Like-named read-outs stand apart in the source and are kept apart here.

Assays:
[1] = system: progressive, locally advanced, or metastatic HER2-positive breast cancer; settings: human, in vivo
[2] = system: HER2-positive breast cancer
[3] = system: HER2-positive, locally advanced disease without previous treatment
breast cancer = settings: monotherapy
[4] = system: HER2-positive metastatic and locally advanced breast cancer; settings: first-line therapy
[5] = system: tumor xenografts which overexpress HER2; settings: in vivo
[6] = trastuzumab-refractory patients

For CCCCCOC(=O)Nc1nc(=O)n([C@@H]2O[C@H](C)[C@@H](O)[C@H]2O)cc1F [capecitabine], the “median TTP” value [1] is given as 4.4 months.
For CS(=O)(=O)CCNCc1ccc(-c2ccc3ncnc(Nc4ccc(OCc5cccc(F)c5)c(Cl)c4)c3c2)o1 [lapatinib], the “toxicity in the run-in phase” value ([2]; with EC-DOC) is listed as “lowered due to toxicity”, the “pCR rate (no invasive disease in breast)” value ([2]; with epirubicin, cyclophosphamide followed by docetaxel (EC-DOC), n=620) is listed as 35% and the pCR rate ([3]; patients with low PTEN expression and PI3 kinase mutation) is listed as 87%. For the same compound, the pCR rate ([3]; single agent first, followed by trastuzumab/docetaxel ×4 cycles) was 68%, the response rate (breast cancer; trastuzumab-naive patients) was 24% and the response rate (breast cancer; [6]) was 5.1%. For the same compound, the overall response rate [4] was 24%.
For CCOc1cc2ncc(C#N)c(Nc3ccc(OCc4ccccn4)c(Cl)c3)c2cc1NC(=O)/C=C/CN(C)C [neratinib], the tumor growth [5] is given as “repress tumor growth in a dose-dependent manner”, the “phosphorylation of MAPK and AKT signal transduction pathways” value (BT474 cell lines) is given as “effectively repressed” and the response rate (breast cancer; trastuzumab-naive patients) is given as 56%. The response rate (breast cancer; [6]) was 26%.
